Results taken from patent US9295253B2, “Use of abscisic acid on ornamental plants” (Valent BioSciences Corporation, priority 2007, dated 2016).

Assays:
Agapanthus = assay: Drought tolerance and side effects after ABA drench, irrigation withheld; type: in vivo; conditions: drenched with 250 ppm ABA, greenhouse, no irrigation
Text: (§1) Many different commercial ornamental crops were obtained from local retailers, or from wholesale nurseries, and transported to a greenhouse for testing. Plants were watered to saturation and allowed to stand and drain for about one hour. Plants were selected for uniformity based on leaf area and arranged in a randomized complete block design, or a completely randomized design, on the greenhouse bench. The plants were sprayed or drenched with water or treatment solution equaling about 5-10% of the pot volume. The plants were held without irrigation until all the plants wilted to a point when they were determined to be unmarketable. The plants were rated daily for the extent of wilting on a scale from 1 for no wilting to 4 for complete wilting. A rating of 2.5 was the point at which a plant was determined to be unmarketable and the previous day was recorded as the marketable life of that plant in days. The plants were rated for the extent of lower leaf yellowing or leaf or flower abscission on a scale from 1 for no yellowing or abscission to 4 for complete yellowing or abscission. A rating of 2.5 was the point at which a plant was determined to be unmarketable.
(§2) Plants were individually rated on a daily basis for degree of wilting and other undesirable characteristics like leaf yellowing.

Alyssum = assay: as above; type: in vivo; conditions: drenched with 250 ppm ABA, greenhouse, no irrigation
Text: as §1, §2

Calibrachoa = assay: as above; type: in vivo; conditions: drenched with 250 ppm ABA, greenhouse, no irrigation
Text: as §1, §2

Celosia = assay: as above; type: in vivo; conditions: drenched with 250 ppm ABA, greenhouse, no irrigation
Text: as §1, §2

Chrysanthemum = assay: as above; type: in vivo; conditions: drenched with 250 ppm ABA, greenhouse, no irrigation
Text: as §1, §2

Coleus = assay: as above; type: in vivo; conditions: drenched with 250 ppm ABA, greenhouse, no irrigation
Text: as §1, §2

Cosmos = assay: as above; type: in vivo; conditions: drenched with 250 ppm ABA, greenhouse, no irrigation
Text: as §1, §2

Cuphea = assay: as above; type: in vivo; conditions: drenched with 250 ppm ABA, greenhouse, no irrigation
Text: as §1, §2

Dianthus = assay: as above; type: in vivo; conditions: drenched with 250 ppm ABA, greenhouse, no irrigation
Text: as §1, §2

Euryops = assay: as above; type: in vivo; conditions: drenched with 250 ppm ABA, greenhouse, no irrigation
Text: as §1, §2

Gazania = assay: as above; type: in vivo; conditions: drenched with 250 ppm ABA, greenhouse, no irrigation
Text: as §1, §2

Hydrangea = assay: as above; type: in vivo; conditions: drenched with 250 ppm ABA, greenhouse, no irrigation
Text: as §1, §2

Impatiens = assay: as above; type: in vivo; conditions: drenched with 250 ppm ABA, greenhouse, no irrigation
Text: as §1, §2

Lantana = assay: as above; type: in vivo; conditions: drenched with 250 ppm ABA, greenhouse, no irrigation
Text: as §1, §2

Lobelia = assay: as above; type: in vivo; conditions: drenched with 250 ppm ABA, greenhouse, no irrigation
Text: as §1, §2

Marigold = assay: as above; type: in vivo; conditions: drenched with 250 ppm ABA, greenhouse, no irrigation
Text: as §1, §2

New Guinea Impatiens = assay: as above; type: in vivo
Text: as §1, §2

Pansy = assay: as above; type: in vivo
Text: as §1, §2

Pentas = assay: as above; type: in vivo; conditions: drenched with 250 ppm ABA, greenhouse, no irrigation
Text: as §1, §2

Petunia = assay: as above; type: in vivo; conditions: drenched with 250 ppm ABA, greenhouse, no irrigation
Text: as §1, §2

Poinsettia = assay: as above; type: in vivo; conditions: drenched with 250 ppm ABA, greenhouse, no irrigation
Text: as §1, §2

Rose = assay: as above; type: in vivo; conditions: drenched with 250 ppm ABA, greenhouse, no irrigation
Text: as §1, §2

Salvia = assay: as above; type: in vivo; conditions: drenched with 250 ppm ABA, greenhouse, no irrigation
Text: as §1, §2

Snapdragon = assay: as above; type: in vivo; conditions: drenched with 250 ppm ABA, greenhouse, no irrigation
Text: as §1, §2

Vinca = assay: as above; type: in vivo
Text: as §1, §2

potted Poinsettia plants = conditions: foliar application; cited from earlier work
excised Coleus leaves = conditions: applied through the petiole of excised Coleus leaves, compared to excised leaves standing in water; cited from earlier work
[1] = drenched with 250 ppm ABA, greenhouse, no irrigation

(S)-5-(1-hydroxy-2,6,6,-trimethyl-4-oxo-2-cyclohexen-1-yl)-3-methyl-(2Z,4E)-pentadienoic acid [ABA]
Market life extension (days of additional market life compared to control plants due to delayed wilting) (Agapanthus): 0 days
Market life extension (days of additional market life compared to control plants due to delayed wilting) (Alyssum): 0 days
Market life extension (days of additional market life compared to control plants due to delayed wilting) (Calibrachoa): 0 days
Market life extension (days of additional market life compared to control plants due to delayed wilting) (Celosia): 2.3 days
Market life extension (days of additional market life compared to control plants due to delayed wilting) (Chrysanthemum): 2.0 days
Market life extension (days of additional market life compared to control plants due to delayed wilting) (Coleus): 2.3 days
Market life extension (days of additional market life compared to control plants due to delayed wilting) (Cosmos): 1.4 days
Market life extension (days of additional market life compared to control plants due to delayed wilting) (Cuphea): 2.3 days
Market life extension (days of additional market life compared to control plants due to delayed wilting) (Dianthus): 1.6 days
Market life extension (days of additional market life compared to control plants due to delayed wilting) (Euryops): 3.3 days
Market life extension (days of additional market life compared to control plants due to delayed wilting) (Gazania): 0 days
Market life extension (days of additional market life compared to control plants due to delayed wilting) (Hydrangea): 3.4 days
Market life extension (days of additional market life compared to control plants due to delayed wilting) (Impatiens): 2.0 days
Market life extension (days of additional market life compared to control plants due to delayed wilting) (Lantana): 2.4 days
Market life extension (days of additional market life compared to control plants due to delayed wilting) (Lobelia): 2.5 days
Market life extension (days of additional market life compared to control plants due to delayed wilting) (Marigold): 1.9 days
Drought tolerance of treated plants (in words) (New Guinea Impatiens; ABA application): much greater drought tolerance
Market life extension (days of additional market life compared to control plants due to delayed wilting) (New Guinea Impatiens; [1]): 3.3 days
Drought tolerance of treated plants (in words) (Pansy; ABA application): more drought tolerant
Market life extension (days of additional market life compared to control plants due to delayed wilting) (Pansy; [1]): 1.6 days
Market life extension (days of additional market life compared to control plants due to delayed wilting) (Pentas): 2.8 days
Market life extension (days of additional market life compared to control plants due to delayed wilting) (Petunia): 3.5 days
Market life extension (days of additional market life compared to control plants due to delayed wilting) (Poinsettia): 2.0 days
Market life extension (days of additional market life compared to control plants due to delayed wilting) (Rose): 0 days
Market life extension (days of additional market life compared to control plants due to delayed wilting) (Salvia): 1.9 days
Market life extension (days of additional market life compared to control plants due to delayed wilting) (Snapdragon): 1.5 days
Drought tolerance of treated plants (in words) (Vinca; ABA application): more drought tolerant
Market life extension (days of additional market life compared to control plants due to delayed wilting) (Vinca; [1]): 2.5 days
Transpiration (potted Poinsettia plants): reduced the transpiration
Transpiration rate (excised Coleus leaves): reduces their transpiration rate
